Measurements: publication PMC4829233, “Identification of Novel Chemical Scaffolds Inhibiting Trypanothione Synthetase from Pathogenic Trypanosomatids” (PLoS Neglected Tropical Diseases, 2016)
Where two headings read alike, the source gives them in different places.

How the values were obtained:
Test in all cases: biochemical
[1] = target: TcTryS (Trypanosoma cruzi trypanothione synthetase) (Trypanosoma cruzi, UniProt Q9GT49); type: biochemical; conditions: for remaining activity at 30 µM: read-out: TcTryS Activity ± 2σn-1 (%)
[2] = target: LiTryS (Leishmania infantum trypanothione synthetase) (Leishmania infantum, UniProt A4I2Z3); type: biochemical; conditions: for activity at 30 µM: read-out: LiTryS Activity ± 2σn-1 (%)
[3] = target: TbTryS (Trypanosoma brucei trypanothione synthetase) (Trypanosoma brucei brucei, UniProt Q8IEX1); conditions: for activity at 30 µM: read-out: TbTryS Activity ± 2σn-1 (%)
TbTryS (Trypanosoma brucei trypanothione synthetase), sequence (Q8IEX1 1-627): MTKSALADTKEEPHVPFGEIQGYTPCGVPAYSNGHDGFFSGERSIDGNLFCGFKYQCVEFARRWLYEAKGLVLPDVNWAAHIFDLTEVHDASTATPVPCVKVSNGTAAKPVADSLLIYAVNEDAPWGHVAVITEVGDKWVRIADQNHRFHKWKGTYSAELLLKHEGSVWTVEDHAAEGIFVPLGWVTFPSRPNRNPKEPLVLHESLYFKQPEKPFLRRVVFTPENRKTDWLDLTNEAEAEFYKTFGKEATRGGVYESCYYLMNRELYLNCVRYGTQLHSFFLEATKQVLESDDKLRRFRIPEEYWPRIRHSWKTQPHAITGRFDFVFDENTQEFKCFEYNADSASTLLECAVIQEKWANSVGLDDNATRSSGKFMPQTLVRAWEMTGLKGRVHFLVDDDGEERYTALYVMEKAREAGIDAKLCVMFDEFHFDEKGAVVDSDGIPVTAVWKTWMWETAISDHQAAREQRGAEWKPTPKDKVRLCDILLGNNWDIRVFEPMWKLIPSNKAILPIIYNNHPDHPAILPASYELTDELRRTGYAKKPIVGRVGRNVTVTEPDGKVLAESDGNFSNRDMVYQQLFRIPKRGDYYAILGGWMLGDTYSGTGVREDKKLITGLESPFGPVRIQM

TcTryS (Trypanosoma cruzi trypanothione synthetase), sequence (Q9GT49 whole entry): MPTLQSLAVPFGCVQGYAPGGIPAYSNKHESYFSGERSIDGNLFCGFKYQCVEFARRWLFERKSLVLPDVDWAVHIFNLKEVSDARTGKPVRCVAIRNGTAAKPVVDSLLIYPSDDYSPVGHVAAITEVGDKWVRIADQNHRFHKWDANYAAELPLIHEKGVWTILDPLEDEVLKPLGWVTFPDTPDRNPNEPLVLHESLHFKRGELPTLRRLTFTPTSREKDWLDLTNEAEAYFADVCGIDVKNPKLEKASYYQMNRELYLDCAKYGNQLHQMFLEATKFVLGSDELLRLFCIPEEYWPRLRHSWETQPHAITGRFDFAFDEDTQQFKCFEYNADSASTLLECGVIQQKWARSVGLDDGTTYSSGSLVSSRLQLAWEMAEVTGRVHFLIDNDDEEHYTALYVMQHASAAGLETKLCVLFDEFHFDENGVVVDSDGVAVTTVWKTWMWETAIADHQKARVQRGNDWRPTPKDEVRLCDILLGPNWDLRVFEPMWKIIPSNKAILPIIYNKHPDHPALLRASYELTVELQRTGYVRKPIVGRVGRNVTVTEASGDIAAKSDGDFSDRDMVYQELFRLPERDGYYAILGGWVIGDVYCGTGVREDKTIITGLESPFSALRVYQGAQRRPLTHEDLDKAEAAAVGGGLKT
LiTryS (Leishmania infantum trypanothione synthetase), sequence (A4I2Z3 1-652): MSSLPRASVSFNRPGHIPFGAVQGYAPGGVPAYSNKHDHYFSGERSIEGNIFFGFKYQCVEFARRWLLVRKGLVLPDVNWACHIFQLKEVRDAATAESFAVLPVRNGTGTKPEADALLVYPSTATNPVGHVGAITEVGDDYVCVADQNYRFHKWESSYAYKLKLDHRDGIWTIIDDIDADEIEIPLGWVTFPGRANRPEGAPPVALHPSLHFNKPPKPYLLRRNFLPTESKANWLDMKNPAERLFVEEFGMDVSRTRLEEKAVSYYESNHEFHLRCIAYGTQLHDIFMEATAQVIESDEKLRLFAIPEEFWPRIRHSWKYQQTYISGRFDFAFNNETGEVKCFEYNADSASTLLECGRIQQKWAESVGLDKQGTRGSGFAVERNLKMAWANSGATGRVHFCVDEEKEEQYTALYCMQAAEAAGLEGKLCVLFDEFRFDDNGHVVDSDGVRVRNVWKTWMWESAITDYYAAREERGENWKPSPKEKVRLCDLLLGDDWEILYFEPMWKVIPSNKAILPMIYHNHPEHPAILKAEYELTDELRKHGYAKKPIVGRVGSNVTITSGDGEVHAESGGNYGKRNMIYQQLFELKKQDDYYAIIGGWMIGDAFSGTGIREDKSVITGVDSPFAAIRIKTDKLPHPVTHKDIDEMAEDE

COc1ccc(C2C(C(=O)c3ccc4c(c3)OCCO4)=C(O)C(=O)N2c2nc3ccc(C)cc3s2)cc1 (stereo not shown) [AD81]
TcTryS Activity ± 2σn-1 (%) [1]: 109.7 ± 8.9; 4%
remaining activity at 30 µM [1]: 110 ± 8.9%
activity at 30 µM [2]: 83.9 ± 4.2%
TbTryS Activity ± 2σn-1 (%) ([3]; 30 µM): 128.2 ± 3.6 ; 8 (0.93) %
activity at 30 µM [3]: 128%

Cc1ccc2nc(N3C(=O)C(O)=C(C(=O)c4ccc5c(c4)OCCO5)C3c3ccc(O)cc3)sc2c1 (stereo not shown) [AD82]
TcTryS Activity ± 2σn-1 (%) [1]: 103.4 ± 6.4; 2%
LiTryS Activity ± 2σn-1 (%) [2]: 86.2 ± 5.8; 4%
TbTryS Activity ± 2σn-1 (%) [3]: 107.7 ± 6.4; 4%

O=C(C1=C(O)C(=O)N(c2nc3ccc(Cl)cc3s2)C1c1ccc(O)cc1)c1ccc2c(c1)OCCO2 (stereo not shown) [AD83]
TcTryS Activity ± 2σn-1 (%) [1]: 93.6 ± 4.7; 3 (0.93) %
LiTryS Activity ± 2σn-1 (%) [2]: 83.9 ± 3.8; 4%
TbTryS Activity ± 2σn-1 (%) [3]: 106.9 ± 4.7; 3%

COc1ccc(C2C(C(=O)c3ccc4c(c3)OCCO4)=C(O)C(=O)N2c2nc3ccc(Cl)cc3s2)cc1 (stereo not shown) [AD84]
TcTryS Activity ± 2σn-1 (%) [1]: 98.7 ± 5.1; 4%
remaining activity at 30 µM [1]: 98.7 ± 5.1%
activity at 30 µM [2]: 82.1 ± 4%
TbTryS Activity ± 2σn-1 (%) ([3]; 30 µM): 119.0 ± 6.3; 8 (0.95) %
activity at 30 µM [3]: 119%

O=C(C1=C(O)C(=O)N(c2nc3ccc(Cl)cc3s2)C1c1ccc(F)cc1)c1ccc2c(c1)OCCO2 (stereo not shown) [ADMRC150]
TcTryS Activity ± 2σn-1 (%) [1]: 81.2 ± 4.1; 4%
% LiTryS inhibition ± 2σn-1 [2]: ~35%
LiTryS Activity ± 2σn-1 (%) [2]: 63.0 ± 6.8; 7%
TbTryS Activity ± 2σn-1 (%) [3]: 101.4 ± 8.2; 12%

Cc1ccc2nc(N3C(=O)C(O)=C(C(=O)c4ccc5c(c4)OCCO5)C3c3ccccc3)sc2c1 (stereo not shown) [ADMRC151]
TcTryS Activity ± 2σn-1 (%) [1]: 97.0 ± 5.2; 3%
LiTryS Activity ± 2σn-1 (%) [2]: 83.1 ± 2.3; 3%
TbTryS Activity ± 2σn-1 (%) [3]: 107.7 ± 6.1; 3%

COc1cc(C2C(C(=O)c3ccc4c(c3)OCCO4)=C(O)C(=O)N2c2nc3ccc(C)cc3s2)ccc1O (stereo not shown) [ADMRC152]
TcTryS Activity ± 2σn-1 (%) [1]: 103.1 ± 6.2; 3%
LiTryS Activity ± 2σn-1 (%) [2]: 92.5 ± 6.6; 4%
TbTryS Activity ± 2σn-1 (%) [3]: 115.4 ± 4.3; 3%

COc1ccc(C2C(C(=O)c3ccc4c(c3)OCCO4)=C(O)C(=O)N2c2nc3ccc(C)cc3s2)cc1OC (stereo not shown) [ADMRC153]
TcTryS Activity ± 2σn-1 (%) [1]: 109.3 ± 4.7; 4%
LiTryS Activity ± 2σn-1 (%) [2]: 87.6 ± 6.0; 4%
TbTryS Activity ± 2σn-1 (%) [3]: 103.3 ± 3.2; 3%

Cc1ccc2nc(N3C(=O)C(O)=C(C(=O)c4ccc5c(c4)OCCO5)C3c3ccc(F)cc3)sc2c1 (stereo not shown) [ADMRC154]
TcTryS Activity ± 2σn-1 (%) [1]: 93.9 ± 2.1; 3%
% LiTryS inhibition ± 2σn-1 [2]: ~35%
LiTryS Activity ± 2σn-1 (%) [2]: 64.7 ± 3.7; 4%
TbTryS Activity ± 2σn-1 (%) [3]: 110.3 ± 8.7 ; 12%

COc1ccc2nc(N3C(=O)C(O)=C(C(=O)c4ccc5c(c4)OCCO5)C3c3ccc(OC)c(OC)c3)sc2c1 (stereo not shown) [ADMRC155]
TcTryS Activity ± 2σn-1 (%) [1]: 104.0 ± 6.6; 4%
LiTryS Activity ± 2σn-1 (%) [2]: 89.3 ± 7.4; 3%
TbTryS Activity ± 2σn-1 (%) [3]: 97.5 ± 3.4; 3%

COc1ccc2nc(N3C(=O)C(O)=C(C(=O)c4ccc5c(c4)OCCO5)C3c3ccc(O)c(OC)c3)sc2c1 (stereo not shown) [ADMRC156]
TcTryS Activity ± 2σn-1 (%) [1]: 102.2 ± 8.8; 4%
LiTryS Activity ± 2σn-1 (%) [2]: 79.4 ± 4.6; 4%
TbTryS Activity ± 2σn-1 (%) [3]: 108.1 ± 6.5; 3%

COc1ccc(C2C(C(=O)c3ccc4c(c3)OCCO4)=C(O)C(=O)N2c2nc3ccc(Cl)cc3s2)cc1OC (stereo not shown) [ADMRC157]
TcTryS Activity ± 2σn-1 (%) [1]: 109.2 ± 1.5; 4%
LiTryS Activity ± 2σn-1 (%) [2]: 89.1 ± 2.8; 4%
TbTryS Activity ± 2σn-1 (%) [3]: 102.1 ± 0.01; 3%

COc1cc(C2C(C(=O)c3ccc4c(c3)OCCO4)=C(O)C(=O)N2c2nc3ccc(Cl)cc3s2)ccc1O (stereo not shown) [ADMRC158]
TcTryS Activity ± 2σn-1 (%) [1]: 97.4 ± 6.1; 4%
remaining activity at 30 µM [1]: 97.4 ± 6.1%
activity at 30 µM [2]: 85.3 ± 8.7%
TbTryS Activity ± 2σn-1 (%) ([3]; 30 µM): 119.1 ± 4.6; 5 (0.88) %
activity at 30 µM [3]: 119%

O=C(C1=C(O)C(=O)N(c2nc3ccc(Cl)cc3s2)C1c1ccccc1)c1ccc2c(c1)OCCO2 (stereo not shown) [ADMRC159]
TcTryS Activity ± 2σn-1 (%) [1]: 97.2 ± 7.8; 2%
% LiTryS inhibition ± 2σn-1 [2]: ~35%
LiTryS Activity ± 2σn-1 (%) [2]: 64.1 ± 2.7; 4%
TbTryS Activity ± 2σn-1 (%) [3]: 91.7 ± 6.5; 3%

COc1ccc(C2C(C(=O)c3ccc4c(c3)OCCO4)=C(O)C(=O)N2c2nc3ccc(OC)cc3s2)cc1 (stereo not shown) [ADPKN160]
TcTryS Activity ± 2σn-1 (%) [1]: 97.6 ± 3.7; 4%
remaining activity at 30 µM [1]: 97.6 ± 3.7%
activity at 30 µM [2]: 77.9 ± 3.6%
TbTryS Activity ± 2σn-1 (%) ([3]; 30 µM): 116.4 ± 4.2; 4 (0.87) %
activity at 30 µM [3]: 116%

O=C(C1=C(O)C(=O)N(c2nc3ccccc3s2)C1c1ccc(F)cc1)c1ccc2c(c1)OCCO2 (stereo not shown) [ADPKN161]
TcTryS Activity ± 2σn-1 (%) [1]: 90.8 ± 5.8; 4%
remaining activity at 30 µM [1]: 90.8 ± 5.8%
activity at 30 µM [2]: 83.5 ± 9.2%
activity at 30 µM [3]: 127%

COc1ccc(C2C(C(=O)c3ccc(OC)c(OC)c3)=C(O)C(=O)N2c2nc3ccc(Cl)cc3s2)cc1 (stereo not shown) [ADPKN163]
TcTryS Activity ± 2σn-1 (%) [1]: 113.6 ± 3.4; 4%
LiTryS Activity ± 2σn-1 (%) [2]: 82.3 ± 7.7; 3%
TbTryS Activity ± 2σn-1 (%) [3]: 88.0 ± 5.0; 4%

COc1ccc(C(=O)C2=C(O)C(=O)N(c3nc4ccc(Cl)cc4s3)C2c2ccc(F)cc2)cc1OC (stereo not shown) [ADPKN164]
TcTryS Activity ± 2σn-1 (%) [1]: 99.6 ± 5.7; 4%
remaining activity at 30 µM [1]: 99.6 ± 5.7%
inhibition at 30 µM ([2]; read-out: % LiTryS inhibition ± 2σn-1): ~35%
activity at 30 µM [2]: 66 ± 3.4%
TbTryS Activity ± 2σn-1 (%) ([3]; 30 µM): 123.2 ± 7.0; 4 (0.83) %
activity at 30 µM [3]: 123%

COc1ccc(C2C(C(=O)c3ccc4c(c3)OCCO4)=C(O)C(=O)N2c2nc3ccccc3s2)cc1 (stereo not shown) [ADPKN165]
TcTryS Activity ± 2σn-1 (%) [1]: 107.1 ± 4.5; 4%
remaining activity at 30 µM [1]: 107 ± 4.5%
activity at 30 µM [2]: 83.5 ± 6%
activity at 30 µM [3]: 166%

COc1ccc(C2C(C(=O)c3ccc(OC)c(OC)c3)=C(O)C(=O)N2c2nc3ccc(OC)cc3s2)cc1 (stereo not shown) [ADPKN 162]
TcTryS Activity ± 2σn-1 (%) [1]: 98.1 ± 4.7; 4%
LiTryS Activity ± 2σn-1 (%) [2]: 79.8 ± 3.4; 4%
TbTryS Activity ± 2σn-1 (%) [3]: 82.0 ± 1.6; 3%
